Paper PMC2577671, “Evaluation of Dimebon in cellular model of Huntington's disease” (Molecular Neurodegeneration, 2008)

Key:
Histamine H1 receptor = molecular target: T1, Histamine H1 receptor (Homo sapiens, UniProt P35367); assay: MDS Pharma Services binding screen at […]
T1 construct: gene HRH1

α2A-Adrenergic receptor = molecular target: T2, α2A-Adrenergic receptor (Homo sapiens, UniProt P08913); assay: MDS Pharma Services binding screen at […]
T2 construct: gene ADRA2A
T2 sequence (P08913 whole entry): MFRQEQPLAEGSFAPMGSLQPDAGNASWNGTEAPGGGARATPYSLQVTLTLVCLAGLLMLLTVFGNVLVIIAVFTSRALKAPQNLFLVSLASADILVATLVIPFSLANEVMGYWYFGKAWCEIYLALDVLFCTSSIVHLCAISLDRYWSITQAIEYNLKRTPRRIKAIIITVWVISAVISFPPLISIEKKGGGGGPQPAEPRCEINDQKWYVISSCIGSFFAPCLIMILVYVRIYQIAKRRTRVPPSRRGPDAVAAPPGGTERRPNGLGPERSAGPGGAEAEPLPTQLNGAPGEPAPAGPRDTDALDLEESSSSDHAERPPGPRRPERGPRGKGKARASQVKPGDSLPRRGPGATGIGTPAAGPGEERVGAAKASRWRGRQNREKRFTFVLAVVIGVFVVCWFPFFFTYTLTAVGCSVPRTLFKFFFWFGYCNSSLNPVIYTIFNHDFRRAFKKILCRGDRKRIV

T1 sequence (P35367 whole entry): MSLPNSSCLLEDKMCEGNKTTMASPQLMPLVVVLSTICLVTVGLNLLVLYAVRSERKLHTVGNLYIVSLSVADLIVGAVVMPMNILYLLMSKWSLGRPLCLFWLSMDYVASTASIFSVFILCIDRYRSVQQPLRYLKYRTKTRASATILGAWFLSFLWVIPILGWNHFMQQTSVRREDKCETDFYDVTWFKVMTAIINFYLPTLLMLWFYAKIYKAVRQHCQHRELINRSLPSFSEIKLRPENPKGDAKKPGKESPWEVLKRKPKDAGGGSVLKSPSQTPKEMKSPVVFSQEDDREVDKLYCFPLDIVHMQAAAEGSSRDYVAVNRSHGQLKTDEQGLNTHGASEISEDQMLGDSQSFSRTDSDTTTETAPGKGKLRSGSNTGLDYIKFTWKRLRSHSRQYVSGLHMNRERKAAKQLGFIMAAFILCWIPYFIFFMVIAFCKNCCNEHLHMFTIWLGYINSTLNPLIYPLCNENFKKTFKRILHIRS

Cc1ccc2c(c1)c1c(n2CCc2ccc(C)nc2)CCN(C)C1 [Dimebon, 2,3,4,5-Tetrahydro-2,8-dimethyl-5-(2-(6-methyl-3-pyridyl)ethyl)-1H-pyrido(4,3-b)indole]
inhibition at 10 µM (Histamine H1 receptor): > 90%
inhibition at 10 µM (α2A-Adrenergic receptor): > 90%
